What all share (type): functional, cell-based
For one assay, the system named is COLO 205. In words: Antiproliferative activity against human COLO205 cells after 48 hrs by MTT assay. The settings on record: COLO 205, 48 h. (In general: Formazan colour is commonly taken as a measure of viable cells.)
Another assay has as its system HepG2. Nature of the assay: Antiproliferative activity against human HepG2 cells after 48 hrs by MTT assay. The conditions noted are these: HepG2, 48 h.
For a further assay, the system named is U-937. Nature of the assay: Antiproliferative activity against human U937 cells after 48 hrs by MTT assay. The conditions noted are these: U-937, 48 h.
For a further assay, the system named is B16-F10. In words: Antiproliferative activity against mouse B16F10 cells after 48 hrs by MTT assay. The settings on record: B16-F10, 48 h.
The next assay concerns THP-1. In words: Antiproliferative activity against human THP1 cells after 48 hrs by MTT assay. The settings on record: THP-1, 48 h.

pIC50: −log10 of the molar value.

On to `O=C(/C=C/[C@H](O)Cc1ccccc1)CCc1ccccc1`, for which the pIC50 in the assay with COLO 205 was 3.71; in the assay on HepG2 it was 3.73; in the assay on U-937, 3.86; with B16-F10, 3.89; in the assay with THP-1 it was 3.92.

As to `O=C(/C=C/[C@@H](O)Cc1ccccc1)CCc1ccccc1`, the negative logarithm of the IC50 (pIC50) is 3.30 in the assay on COLO 205; 3.45 in the assay on HepG2; 3.77 in the assay on U-937; 3.47 in the assay with B16-F10; 3.71 with THP-1.

In the case of `COc1ccc(CCC(=O)/C=C/[C@H](O)Cc2ccccc2)cc1OC`, the pIC50 in the assay on COLO 205 is 4.95; with HepG2, 4.49; in the assay with U-937, 4.65; in the assay with B16-F10 it was 4.42; in the assay with THP-1, 5.12.

As for `COc1ccc(CCC(=O)/C=C/[C@@H](O)Cc2ccccc2)cc1OC`, the pIC50 with COLO 205 is 5.14; in the assay with HepG2 it was 4.27; with U-937 it was 4.50; in the assay with B16-F10 it was 4.01; in the assay on THP-1 it was 4.49.

Consider `COc1cc([C@@H]2c3cc4c(cc3[C@@H](O[C@@H]3O[C@@H]5CO[C@@H](C)O[C@H]5[C@H](O)[C@H]3O)[C@H]3COC(=O)[C@H]23)OCO4)cc(OC)c1O` [ETOPOSIDE], for which the pIC50 is 6.37 in the assay on COLO 205, 5.32 with HepG2 and 4.73 in the assay on B16-F10.

In general, pIC50 refers to the IC50 on a negative log10 scale, so that one unit is a factor of ten. Low readings indicate a high IC50, high ones a low IC50.
